Test results taken from patent publication US6827926B2, “Metallotetrapyrrolic photosensitizing agents for use in photodynamic therapy” (Miravant Pharmaceuticals, Inc., priority 2001, dated 2004).

How the values were obtained:
[1] = test system: V79 (Chinese Hamster Lung Fibroblasts) cells; assay: In vitro cytotoxicity assay (light EC50, Alamar blue); type: cell-based; settings: Table 3 porphyrins, 24 h drug incubation, 532 nm, 1.25 J/cm^2, read-out: In Vitro EC50 Light
Method in brief: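 V79 cells in phenol-free 5% FBS/DMEM exposed 24 h to photosensitizer at final 0.01–5.0 μM, six replicates, then washed and light-treated, with a dark plate as control. Survival by Alamar blue after 24 h dark incubation, read at 570/600 nm.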

[2] = test system: normal uninjured rat carotid arteries (medial and adventitial cell populations); assay: In vivo rat carotid artery acellularity after PDT; set-up: species or system Sprague Dawley rats; settings: for Max % rat Artery Accelularity: Table 3, drug dose 1 μMol, 50 J/cm^2, 3 days post treatment
Method in brief: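 Metallated photosensitizers light-activated in normal uninjured rat left common carotid via balloon catheter introduced through femoral arteriotomy under isoflurane; excitation 575 nm (Ga, Zn, Al, Sn) or 532 nm (Pt). Arteries harvested 3 days post-treatment, H&E-stained; medial and adventitial cell density assessed by light microscopy.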

Molecule | EC50 [1] | Max % rat Artery Accelularity [2] | acellularity (rat artery) ([2]; text b234, 1 μmol/Kg (printed 1 mol/Kg for 57))
Gallium Chloride Mesoporphyrin Dimethyl Ester [Example 1] | 200 nM | 95% | 95%
CCC1=C(C)C2=[N+]3C1=Cc1c(C)c(CC)c4[n]1[Ga-2]31([Cl])[n]3c(c(C)c(CCC(=O)NC)c3=CC3=[N+]1C(=C4)C(C)=C3CCC(=O)NC)=C2 [Example 121, Gallium Chloride Mesoporphyrin N-methyl Amide] | 400 nM | 60% | 
COC(=O)CCC1=C(C)c2cc3[n-]c(cc4nc(cc5[n-]c(cc1n2)c(CCC(=O)OC)c5C)C=C4C)cc3C.[Cl-].[Ga+3] [Example 4, Gallium Chloride Deuteroporphyrin Dimethyl Ester] | 400 nM | 95% | 
